Measurements: publication PMC5716993, “The interdomain flexible linker of the polypeptide GalNAc transferases dictates their long-range glycosylation preferences” (Nature Communications, 2017)
“Also recorded” adds a separate entry of the source.

Target: T1, GalNAc-T4 (Homo sapiens, UniProt Q8N4A0)
T1 construct: amino acid residues 36–578 of the human GalNAc-T4; histidine tag (C); made in house; host or cells: Pichia pastoris SMD1168 (pPICZαA, secreted)
Assay: STD-NMR binding / epitope mapping
Conditions: for STD-NMR signals of the GalNAc sugar protons: GalNAc moiety, UDP, pH 7.4; for STD-NMR signals of the GalNAc sugar protons / STD-NMR signals (peptide recognition): ~880 μM ligand, 13.5 μM GalNAc-T4, 298 K; for STD-NMR signals of the GalNAc sugar protons / STD-NMR signals (peptide recognition) / STD-NMR-derived epitope mapping of GalNAc moiety: in words; for STD-NMR signals (peptide recognition): in presence of UDP and MnCl2 (75 μM each), pH 7.4 uncorrected, TRIS-d11 D2O; for STD-NMR-derived epitope mapping of GalNAc moiety: normalized to the highest STD response
Experimental: All NMR experiments were recorded on a Bruker Avance 600 MHz spectrometer equipped with a triple channel cryoprobe head. The^1H NMR resonances of the peptides 1–3 were completely assigned through standard 2D-TOCSY (30 and 80 ms mixing time) and 2D-NOESY experiments (400 ms mixing time). Solution conditions used for the NMR characterization studies were 1–3 mM (glyco)peptide, 25 mM perdeuterated tris-d11 in 90:10 H2O/D2O, 7.5 mM NaCl, and 1 mM DTT, uncorrected pH 7.4. The assignments were accomplished either at 278 or 298 K. The resonance of 2,2,3,3-tetradeutero-3-trimethylsilylpropionic acid (TSP) was used as a chemical shift reference in the^1H NMR experiments (δ TSP = 0 ppm). Peak lists for the 2D-TOCSY and 2D-NOESY spectra were generated by interactive peak picking using the computer aided resonance assignment (CARA) software.
Samples for STD experiments were prepared in perdeuterated 25 mM TRIS-d11 in deuterated water, 7.5 mM NaCl, and 1 mM DTT, uncorrected pH 7.4. STD-NMR experiments were performed at 298 K in the presence of 75 μM UDP, 75 μM MnCl2 with ~880 μM peptide (or GalNAc-O-Me) and 13.5 μM GalNAc-T4 giving a molar ratio of 65:1 peptide:GalNAc-T4.
The STD-NMR spectra were acquired with 1920 transients in a matrix with 64 k data points in t2 in a spectral window of 12335.53 Hz centered at 2819.65 Hz. An excitation sculpting module with gradients was employed to suppress the water proton signals. Selective saturation of the protein resonances (on resonance spectrum) was performed by irradiating at −1 ppm using a series of Eburp2.1000-shaped 90° pulses (50 ms, 1 ms delay between pulses) for a total saturation time of 2.0 s. For the reference spectrum (off resonance), the samples were irradiated at 100 ppm. Proper control experiments were performed with the ligands in the presence and absence of the protein in order to optimize the frequency for protein saturation (−1 ppm) and to ensure that the ligand signals were not affected. […] This nonspecific saturation was taken into account, by subtraction, when quantifying the STD-NMR data in the presence of the transferase. As well, a blank STD experiment with only the protein was also recorded. The substraction of this protein STD spectrum allowed eliminating the signal background of the protein. In all cases, to accomplish the STD-NMR-derived epitope mapping of each ligand, the STD-NMR total intensities were normalized with respect to the highest STD-NMR response. For Fig. 2b and Supplementary Fig. 1, the STD response of each amino acid corresponds to the average of STD percentages of all amino acid proton resonances that were measured with sufficient accuracy. The signal of the anomeric proton of as well as, the Hα protons of the Ala amino acids of glycopeptides could not be analyzed in the STD-NMR spectra due to their close proximity to the HDO resonance. Proton resonances, from Gly and Pro, appear in the same chemical shift region of the spectrum and were not discriminated.

T1 sequence (Q8N4A0 36-578): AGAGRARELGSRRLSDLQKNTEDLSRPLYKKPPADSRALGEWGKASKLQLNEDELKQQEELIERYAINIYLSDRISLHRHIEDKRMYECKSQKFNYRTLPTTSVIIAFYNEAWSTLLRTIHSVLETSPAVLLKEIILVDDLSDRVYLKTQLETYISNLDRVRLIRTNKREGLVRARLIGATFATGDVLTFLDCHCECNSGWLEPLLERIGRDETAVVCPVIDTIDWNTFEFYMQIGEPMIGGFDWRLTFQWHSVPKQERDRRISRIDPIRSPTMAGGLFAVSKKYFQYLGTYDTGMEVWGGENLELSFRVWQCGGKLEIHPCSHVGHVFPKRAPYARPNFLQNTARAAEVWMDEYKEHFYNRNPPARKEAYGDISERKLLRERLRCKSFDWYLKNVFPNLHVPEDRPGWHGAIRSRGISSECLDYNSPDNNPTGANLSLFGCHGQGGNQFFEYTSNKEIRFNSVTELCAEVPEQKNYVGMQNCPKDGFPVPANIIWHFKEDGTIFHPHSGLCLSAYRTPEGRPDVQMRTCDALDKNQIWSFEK

Row | Substance | STD-NMR signals of the GalNAc sugar protons (MnCl2) | STD response, GalNAc H3 (H3 of GalNAc moiety, normalized to highest STD response, 298 K, pH 7.4, UDP, MnCl2) [%] | STD response, GalNAc H4 (H4 of GalNAc moiety, normalized to highest STD response, 298 K, pH 7.4, UDP, MnCl2) [%] | STD-NMR signals (peptide recognition) | STD-NMR-derived epitope mapping of GalNAc moiety (298 K, pH 7.4, UDP, MnCl2)
1 | GAT*GAGAGAGTTPGPG [Peptide 3, monoglycopeptide GAT*…, T* denotes the Thr-O-GalNAc moiety] | unambiguous and more intense STD-NMR signals; also recorded: GalNAc protons receive much more saturation than the amino acid residues | 72 | 92 | relatively weak STD-NMR signals were observed for the Ala and Thr methyl protons; also recorded: no significant STD with the acceptor peptide residues | H2, H4, and the N-acetyl group of the GalNAc moiety have the highest STD-NMR response closely followed by the H3 proton
2 | AGAGTTPGPGAGAT*GA [Peptide 2, monoglycopeptide …*GA, T* denotes the Thr-O-GalNAc moiety] | unambiguous and more intense STD-NMR signals; also recorded: GalNAc protons receive much more saturation than the amino acid residues |  |  | relatively weak STD-NMR signals were observed for the Ala and Thr methyl protons | the highest STD response corresponded to the H2 proton of the GalNAc moiety followed by a modest STD of protons H4, H3, and N-acetyl group
